Results on 11 compounds are retold here after patent publication EP3666770A1, “NOVEL HETEROCYCLIC COMPOUNDS AS CDK8/19 INHIBITORS” (Joint Stock Company "Biocad", priority 2017, dated 2019).

Structures are written as SMILES. A value given as a limit tells only on which side of the number the result lay.

For series [1], the system named is MV4-11. The series can be described thus: Cell-based antiproliferative test (AlamarBlue), MV4-11. Conditions: Homo sapiens, MV4-11, 120 h, 120 h incubation; average values of several tests; read-out: MV-4-11 IC50, mkM. The method, then: Antiproliferative activity of CDK8 inhibitors according to the present invention was measured in a cell-based test on continuous cell cultures MV4-11 (biphenotypic myelomonocytic leukemia, ATCC® CRL-9591™), KG-1 (acute myeloid leukemia, ATCC® CCL-246™), HL-60 (acute promyelocytic leukemia, ATCC® CCL-240™) using a vital stain AlamarBlue (ThermoFisher, #DAL1100). The cells were grown in RPMI-1640 (PanEco, #C330p) medium with addition of 10% FBS (Gibco, #16140-071); washed and resuspended in culture medium with 10% FBS (Gibco, #16140-071) in 96-well culture plates (Corning, #3599) with ≈ 10 ×10^3 cells in […] of medium per well. The compounds in question were dissolved in DMSO and diluted with a medium with 10% FBS (Gibco, #16140-071) to a final concentration ranging form 0 to 100 µM. […] of diluted compounds were then added to each well (final DMSO concentration was less than 1%) and incubated under 5% CO2 atmosphere at 37°C for 120 h. After incubating, 15 µL of AlamarBlue (ThermoFisher, #DAL1100) reagent was added per well, contents of plates were mixed in an orbital shaker (Biosan, Latvia) and further incubated for 3-5 h at 37°C under 5% CO2 atmosphere. Number of living cells was estimated using a microplate spectrophotometer (Tecan Infinite M200Pro, Switzerland) measuring fluorescent signal at the excitation wavelength (λEx) of 540 nm and emission wavelength (λEm) of 590 nm.
IC50 was calculated using Magellan 7.2 software (Tecan, Switzerland) approximating experimental points by four-parameter logistic model with the optimization by Levenberg-Marquardt (table 7, table 7).

Series [2] is described as follows: Permeability through Caco-2 cell monolayer. It is filed as in vitro ADME. The conditions noted are these: human, Caco-2. The method, then: Estimation of permeability through Caco-2 cell monolayer enables assessment of the ability of the substances to penetrate through biological membranes by means of both active and passive transport.
Intestinal epithelial cells Caco-2 were grown on filter inserts (pore size 0.4 µm, BD Falcon with High Density) for 21 days; monolayer integrity was then checked using Lucifer Yellow (Sigma-Aldrich, USA) according to the standard protocol. In A->B transfer ("intestinal lumen" - "blood stream" transfer), solutions of the test substances in buffer, pH 6.5 (HBSS, 10 mM HEPES, 15 mM glucose) at a concentration of 10 µM were added to the upper chamber; whereas the lower chamber was filled with buffer, pH 7.4 (HBSS, 10 mM HEPES, 15 mM Glucose, 1% BSA). In B->A transfer ("blood stream" - "intestinal lumen" transfer), the upper chamber was filled with buffer, pH 6.5, whereas the solutions of the test substances in buffer, pH 7.4, at a concentration of 10 µM were added to the lower chamber. A highly permeable substance propranolol was used as a control.
After 2 hours incubation at 37 ° C under an atmosphere containing 5% CO2, the amounts of the test substances in the upper and lower chambers were measured by HPLC using an Agilent1200 HPLC system (Agilent, USA), proteins were preliminarily precipitated with acetonitrile. Chromatographic analysis was performed in a gradient elution regime with a flow rate of 1 mL/min. The peak areas corresponding to the compounds were detected on chromatograms.
The value was calculated using the formula: efflux = Papp B−A /Papp A−B , [formula] where • Papp A-E - the value of permeability direct analysis A→ B; • Papp B-A - the value of the permeability of the reverse analysis B→ A.

The nature of series [3]: Enzyme stability in human liver microsomes. It is filed as in vitro ADME. Conditions: pH 7.4; 0,5 mg/mL pooled human liver microsomes; 10 µM compound; 37°C; pH=7,4. The method, then:
Measuring of candidates' enzyme stability enabled estimation of the stability of the present compounds towards the action of enzymes in liver microsomes.
Enzyme degradation rate was measured by incubating the reaction mixture in a dry block thermostat at 37°C, said reaction mixture comprising 0,5 mg/mL of pooled human liver microsomes (XenoTech, USA, cat#H2620), 10 µM compound, 2 mM β-nicotinamide adenine dinucleotide (Carbosynth, UK, cat#NN10871) and 4 mM magnesium chloride in 0,1 M sodium-phosphate buffer, pH=7,4. The reaction was quenched with acetonitrile (100 µL of acetonitrile / 100 µL of the reaction mixture). After quenching, the samples were centrifuged at 10000 rpm for 10 minutes. Supernatant fluid was tested by chromatographic technique using Agilent1200 (Agilent, USA). Chromatographic analysis was performed in a gradient elution regime with a flow rate of 1 mL/min. A graph of the logarithm of substance's peak area as a function of time was made. The dependent factor of the line corresponded to the elimination rate constant K based on which the drug's half-life t1/2 and degradation rate CLint were calculated: Elimination rate constant (k) = (−gradient) [formula] [formula] V(μL/mg) = (volume of incubation(μL))/(protein in the incubation(mg)) [formula] [formula]

Series [4] in a line: Chemical stability in simulated gastric fluid (SGF). In kind it is physicochemical. The conditions noted are these: SGF without enzymes, pH=1,4; 10 µm; 2 hours at 37°C; substance amount in % after thermostatting. The method, then: (§1) Chemical stability of the compounds described herein was determined in simulated gastric fluid and human blood plasma.
SGF concentrate without enzymes, pH=1,4 (Sigma Ireland, cat#01651) was used as simulated gastric fluid. Initial candidate solution (10 mM in DMSO) was diluted with an SGF working solution to a concentration of […] (test solution). The test solution was incubated in a dry block thermostat for 2 hours at 37°C. HPLC with Agilent 1200 liquid chromatography system (Agilent, USA) was employed to determine peak areas of the compounds in test samples, said peak areas corresponding to the initial test time (prior to incubation) and the final test time (after incubation in a dry block thermostat for 2 hours at 37°C). Chromatographic analysis was performed in a gradient elution regime with a flow rate of 1 mL/min. Substance amount in % in a sample after thermostatting was determined.

Series [5] in a line: Chemical stability in human blood plasma. Conditions: pooled human blood plasma; 10 µM; 4 hours at 37°C; substance amount in % after thermostatting. In kind it is in vitro ADME. The method, then:
as §1
Determination of stability in human blood plasma was performed using pooled human blood plasma taken from ten healthy donors. The initial candidate solution (10 mM in DMSO) was diluted with pooled blood plasma to a concentration of […] (test solution). The test solution was incubated in a dry block thermostat for 4 hours at 37°C. HPLC with Agilent 1200 liquid chromatography system (Agilent, USA) was employed to determine peak areas of the compounds in test samples, said peak areas corresponding to the initial test time (prior to incubation) and the final test time (after incubation in a dry block thermostat for 4 hours at 37°C), proteins were preliminarily precipitated with acetonitrile. Chromatographic analysis was performed in a gradient elution regime with a flow rate of 1 mL/min. Substance amount in % in a sample after thermostatting was determined.

Series [6] can be described thus: General cytotoxicity test on HepG2 cells. It is filed as cell-based. Conditions: human, HepG2 cells; 72 h incubation; 200 to 0.78 µM; average values of several tests; read-out: Hep-G2 CC50, mkM. The method, then:
Cell viability was assessed using the above method. Table 6. […] The results are presented as average values of activity obtained in several tests.

Regarding `CN(C)c1ccc(-c2cnc3[nH]cc(C(=O)c4cccnc4)c3c2)cc1O` [CDK8-4-5], the IC50 (commonly the midpoint of a concentration-inhibition curve) in series [1] was 0.62 µM. In addition, in series [2] (A->B transfer, 10 µM, pH 6.5 -> pH 7.4, 2 hours at 37 °C), the Papp A→B (in general, the apparent permeability from the apical to the basolateral side of a cell layer) at 2 h, 10 µM stood at 87.6 ×10⁻⁶ cm/s. In series [2] (efflux = Papp B-A / Papp A-B), the efflux ratio (as a rule, a quotient of directional permeabilities that is used to spot active efflux) at 2 h, 10 µM was found to be 0.12. Besides, the microsomal CLint (in general, the capacity of the preparation to metabolise the compound, expressed as a volume cleared per time) at 10 µM in series [3] was 26.6 µL/min/mg. Besides, the “Stability in SGF, %” value in series [4] was 99.2%. Also, in series [5], the “Stability in blood plasma, %” value is 100%. For the same compound, in series [6], the CC50 (commonly the concentration at which the toxic effect on the cells reaches its halfway point) at 72 h turned out to be 7.7 µM.
As for `N=C(c1ccnc2ccc(-c3ccc(-c4cn[nH]c4)cc3)cc12)N1CCCCC1` [CDK8-5-4i, (6-(4-(1H-Pyrazol-4-yl)phenyl)quinolin-4-yl) (piperidin-1-yl)methanimine], the IC50 in series [1] was found to be 4.32 µM. This compound came in with a microsomal CLint at 10 µM in series [3] of 19 µL/min/mg. The “Stability in SGF, %” value in series [4] is reported as 98.8%. Moreover, in series [5], the “Stability in blood plasma, %” value worked out at 100%. In series [6], the CC50 at 72 h was above 100 µM.
`CN(C)c1ccc(-c2cnc3[nH]cc(C(=O)c4cccnc4)c3c2)c(C#N)c1` [CDK8-4-26, 5-(Dimethylamino)-2-(3-nicotinoyl-1H-pyrrolo[2,3-b]pyridin-5-yl)benzonitrile]: in series [1], the IC50 was found to be 1.28 µM. This compound showed a microsomal CLint at 10 µM in series [3] of 17.6 µL/min/mg. Besides, the “Stability in SGF, %” value in series [4] was 100%. Moreover, in series [5], the “Stability in blood plasma, %” value was 100%. Moreover, the CC50 at 72 h in series [6] is above 100 µM.
In the case of `Cn1cc(-c2ccc(-n3cnc4ccc(N5CC(C(=O)N6CCOCC6)C5)c(F)c43)cc2)cn1` [CDK8-1-20, (1-(1-(4-(1-methyl-1H-pyrazol-4-yl)phenyl)-7-fluoro-1H-benzo[d]imidazol-6-yl)azetidin-3-yl) (morpholino)methanone], the IC50 in series [1] was above 1 µM. Besides, the microsomal CLint at 10 µM in series [3] was 12.4 µL/min/mg. Moreover, the “Stability in SGF, %” value in series [4] is recorded as 99.4%. Also, the “Stability in blood plasma, %” value in series [5] stood at 100%. In series [6], the CC50 at 72 h was above 200 µM.
Turning to `O=C(C1CN(c2ccc3ncn(-c4ccc(-c5cn[nH]c5)cc4)c3c2)C1)N1CCOCC1` [CDK8-1-4, (1-(1-(4-(1H-pyrazol-4-yl)phenyl)-1H-benzo[d]imidazol-6-yl)azetidin-3-yl) (morpholino)methanone], the IC50 in series [1] was determined as 0.7 µM. In series [3], the microsomal CLint at 10 µM was 18.8 µL/min/mg. Further, in series [4], the “Stability in SGF, %” value is 98.2%. In addition, the “Stability in blood plasma, %” value in series [5] came to 100%. Further, the CC50 at 72 h in series [6] is above 100 µM.
Regarding `CN1CCN(C(=O)c2cnc3cncc(-c4ccc(N(C)C)cc4)c3c2)CC1` [CDK8-3-8, (5-(4-(Dimethylamino)phenyl)-1,7-naphthyridin-3-yl)(4-methylpiperazin-1-yl) methanone], the IC50 in series [1] stood at 7.52 µM. In series [3], the microsomal CLint at 10 µM was 18 µL/min/mg. Besides, the “Stability in SGF, %” value in series [4] was 95.4%. Besides, in series [5], the “Stability in blood plasma, %” value worked out at 98%. Moreover, the CC50 at 72 h in series [6] was above 200 µM.
In the same order, the values of `Cn1cc(-c2ccc(-c3cncc4ncc(N5CC(C(=O)N6CCOCC6)C5)cc34)cc2)cn1` [CDK8-3-9, (1-(5-(4-(1-Methyl-1H-pyrazol-4-yl)phenyl)-1,7-naphthyridin-3-yl)azetidin-3-yl) (morpholino)methanone] are 10 µM, 8.8 µL/min/mg, 100%, 100% and above 20 µM.
Regarding `O=C(c1ccccn1)c1c[nH]c2ncc(-c3ccc(N4CCOCC4)c(O)c3)cc12` [CDK8-4-3, (5-(3-Hydroxy-4-morpholinophenyl)-1H-pyrrolo[2,3-b]pyridin-3-yl) (pyridin-2-yl) methanone], the IC50 in series [1] was found to be 1.49 µM. The compound further gave a microsomal CLint at 10 µM in series [3] of 22 µL/min/mg. Besides, the “Stability in SGF, %” value in series [4] is reported as 100%. Also, the “Stability in blood plasma, %” value in series [5] is given as 100%. In series [6], the CC50 at 72 h is above 200 µM.
As for `COC1CN(C(=O)c2ccc3nccc(-c4ccc(-c5cn[nH]c5)cc4)c3c2)C1` [CDK8-6-4, (4-(4-(1H-Pyrazol-4-yl)phenyl)quinolin-6-yl)(3-methoxyazetidin-1-yl) methanone], the IC50 in series [1] worked out at 7.79 µM. For the same compound, the microsomal CLint at 10 µM in series [3] is 16.2 µL/min/mg. The “Stability in SGF, %” value in series [4] is on record as 100%. The “Stability in blood plasma, %” value in series [5] was found to be 100%. Further, the CC50 at 72 h in series [6] is 66.6 µM.
With `COc1ccc(-n2cnc3ccc(N4CC(C(=O)N5CCOCC5)C4)cc32)cc1` [CDK8-1-12, (1-(1-(4-Methoxyphenyl)-1H-benzo[d]imidazol-6-yl)azetidin-3-yl)(morpholino) methanone], in series [1], the concentration for half-maximal inhibition (IC50) was found to be 3.38 µM. This compound also registered a microsomal CLint at 10 µM in series [3] of 3 µL/min/mg. The “Stability in SGF, %” value in series [4] is 98.1%. Moreover, the “Stability in blood plasma, %” value in series [5] is on record as 98%. Also, in series [6], the CC50 at 72 h is above 100 µM.
For the compound `CN(C)c1ccc(-c2cnc3[nH]cc(C(=O)c4ccncc4)c3c2)cc1O` [CDK8-4-9, (5-(4-(Dimethylamino)-3-hydroxyphenyl)-1H-pyrrolo.[2,3-b]pyridin-3-yl) (pyridin-4-yl)methanone], the IC50 in series [1] was 2.1 µM. In series [3], this compound gave a microsomal CLint at 10 µM of 21.6 µL/min/mg. Moreover, in series [4], the “Stability in SGF, %” value is on record as 99.5%. The “Stability in blood plasma, %” value in series [5] was 100%. In series [6], the CC50 at 72 h is above 200 µM.
